Where a name gives a salt, the structure may show the parent alone.
Legend:
[1] = tested on: BMDMs; assay: RNA sequencing (GSEA, ORA) of BMDMs; format: cell-based, mouse; conditions: LPS 4 h; for ERK1/2 cascade and PI3K signalling (shared transcriptomic changes) / amino acid metabolism and transport, and autophagy transcripts: BMDMs pre-treated
Protocol: (§1) All compounds used DMSO as a vehicle except for 4-hydroxy tamoxifen (EtOH), NAC (PBS), and AOAA for tracing experiments (Media). LPS was used at a concentration of 100 ng/ml for indicated timepoints (2, 3, 4, 6, 8, 24, 48 h). FHIN1 (10 or 20 μM), MMF (50 or 100 μM), DMF (25 μM), AOAA (5 mM), oligomycin (10 μM), CCCP (50 μM) NAC (1 mM), and IMT1 (10 μM) pre-treatments were performed for 3 h prior the addition of LPS. Cells were treated with valinomycin (10 nM) 15 mins before LPS stimulation. Anti-CD210 or IgG control (10 μg/ml) antibodies were added to cells 1 h prior to LPS stimulation. Recombinant mouse IL-10 protein (100 ng/ml) was added to cells at the same time as LPS. Cells were treated with IFN-B1 (220 ng/ml) for 3 h. Cells were treated with C-178 (1 μM) 1 h prior to LPS stimulation or transfection with 2′3′-cGAMP (1.5 μg/ml) for 4 hrs to achieve cGAS-STING activation. Cells were treated with ODN 2088 (1 μM) for 1 hr prior to LPS stimulation or transfection with CPG ODN 1826 (1.5 μg/ml) to achieve TLR9 activation. 3 different timepoints of 4-hydroxy tamoxifen (TAM) (600 nM or 2 μM) or EtOH treatment were performed-these are specified in the individual figure legends. For ‘48 h’ treatments EtOH/TAM was added on day 5 of 6 during the BMDM differentiation protocol. On day 6 they were plated with EtOH/TAM (left overnight) and treated the following day. For ‘72 h’ treatments EtOH/TAM was added on day […] of 6 during the BMDM differentiation protocol. On day 6 they were plated with EtOH/TAM (left overnight) and treated the following day. For ‘96 h’ treatments EtOH/TAM was added on day […] of 6 during the BMDM differentiation protocol. On day 6 they were plated with EtOH/TAM and treated 2 days later.
BMDMs (3 independent mice) were treated as indicated and RNA was extracted as previously detailed. mRNA was extracted from total RNA using poly-T-oligo-attached magnetic beads. After fragmentation, the first strand cDNA was synthesized using random hexamer primers, followed by the second strand cDNA synthesis. The library was checked with Qubit and real-time PCR for quantification and bioanalyzer for size distribution detection. Quantified libraries were pooled and sequenced on the NovaSeq 6000 S4 (Illumina). Differential expression analysis of two conditions/groups was performed using counted reads and the DESeq2 R package^67. Pathway enrichment analyses were performed as indicated in quantification and statistical analysis.
Details of all statistical analyses performed can be found in the figure legends. Data were expressed as mean±standard error of the mean (SEM) unless stated otherwise. Representative western blots are shown. For metabolomics data, MetaboAnalyst 5.0^66 was used to analyse, perform statistics, and visualise the results. Autoscaling of features (metabolites) was used for heatmap generation. One-way ANOVA corrected for multiple comparisons by the Tukey statistical test was used and a p.adjusted<0.05 was set as the cut-off. For proteomics data, protein signal intensity was converted to a log2 scale and biological replicates were grouped by experimental condition. Protein-wise linear models combined with empirical Bayes statistics were used for the differential expression analyses. The Bioconductor package limma was used to carry out the analysis using an R based online tool^68. […] The proteomics cut-offs for analysis were a log2FC of 0.5 and a false discovery rate (FDR)<0.05, determined using t statistics. RNA seq cut-offs were set to log2FC of 1 and an FDR<0.05. Overrepresentation analysis (ORA) of significant changes were assessed using Enrichr^4 and the Bioconductor package clusterProfiler 4.0 in R (version 3.6.1). Further information on this visualisation method is available^69. Emapplots were generated using enrichplot package in R (version 3.6.1). GSEA analysis of RNAseq was performed using the Broad Institutes GSEA 4.1.070. […]

[2] = tested on: BMDMs; assay: RT-qPCR gene expression in BMDMs; format: cell-based, mouse; conditions: for IL-1β expression / Il10 expression / Tnfa expression: BMDMs pre-treated 3 h; for Ifnb1 expression following Nrf2 silencing: Nrf2 siRNA
Protocol: as §1
RNA extraction from cells was carried out using a Purelink™ RNA kit (Invitrogen) according to the manufacturer's instructions. BMDMs were treated as required, and following treatment were instantly lysed in 350 μl RNA lysis buffer. Isolated RNA was quantified using a NanoDrop 2000 spectrophotometer, and RNA concentration was normalised to the lowest concentration across all samples with RNAse-free water. If necessary, samples were DNAse-treated after quantification using DNAse I (Thermo Fisher) according to the manufacturer's instructions. Isolated RNA samples were normalised and converted into cDNA using the High-Capacity cDNA Reverse Transcription Kit (Thermo Fisher) according to manufacturer's instructions. 10 μl of RNA (at a maximum concentration of 100 ng/μl) was added to 10 μl of reverse transcription master mix to complete the reaction mixture. Real-time quantitative PCR was performed on the cDNA generated in the previous step, using primers designed in-house and ordered from Eurofins Genomics, as detailed in Table S2. The reaction was performed in a 96-well qPCR plate by a 7500 Fast Real-Time PCR machine (Thermo Fisher). Relative expression (2^−ΔΔCT) was calculated from the CT values for each sample and gene of interest.
Pre-designed silencer select siRNAs for Cgas (s103166), Tmem173 (s91058), Tlr3 (s100579), Tlr9 (s96268), As/(s99640), Tlr7 (s100720), Ddx58 (s106376), Ifih1 (s89787), Nrf2 (s70522), Atf4 (s62689) and negative control (4390843) were ordered from Thermo Fisher. siRNA sequences are given in Table S2. Cells were transfected with 50 nM siRNA using 5 μl lipofectamine RNAiMAX according to manufacturer's instructions (Thermo Fisher). Cells were transfected in medium without serum and antibiotics which was replaced with complete medium 8 hours later. Cells were subsequently left for at least a further 12 hours prior to treatment.

Row | Compound | Fos expression (RNA seq) ([1]; BMDMs pre-treated vs DMSO) | Jun expression (RNA seq) ([1]; BMDMs pre-treated vs DMSO) | other ISGs, such as Lcn2 (RNAseq) ([1]; BMDMs pre-treated vs DMSO) | ERK1/2 cascade and PI3K signalling (shared transcriptomic changes) [1] | amino acid metabolism and transport, and autophagy transcripts [1] | IL-1β expression ([2]; LPS 4 h) | Il10 expression ([2]; LPS 4 h) | Tnfa expression ([2]; LPS 4 h) | Tmem173 expression ([2]; BMDMs pre-treated, LPS 4 h) | Ifnb1 expression following Nrf2 silencing ([2]; BMDMs, LPS 4 h) | Ifnb1 (IFN-β) expression and several interferon-stimulated genes (Irf1, Ifih1, Rsad2, Ifit2), RNAseq ([1]; BMDMs pre-treated vs DMSO) | NRF2 and ATF4 stress response ([1]; BMDMs pre-treated vs DMSO) | TNF-α signalling (overrepresentation analysis of RNAseq) ([1]; BMDMs pre-treated vs DMSO) | expression of HRI stress response, amino acid metabolism and tRNA aminoacylation (GSEA) ([1]; BMDMs pre-treated vs DMSO) | expression of inflammatory pathways, including IL-1 and IL-10 signalling (GSEA) ([1]; BMDMs pre-treated vs DMSO) | genes associated with metabolism (GSEA) ([1]; BMDMs pre-treated vs DMSO) | Ddx58 expression ([2]; BMDMs pre-treated, LPS 4 h) | dependence of the FHIN1 IFN-β increase on NAC-sensitive redox stress (Ifnb1 expression) ([2]; BMDMs, in the presence of NAC, LPS 4 h) | dependence of FHIN1-driven GDF15 on NRF2 and ATF4 ([2]; BMDMs, silencing of Nrf2 or Atf4, LPS 4 h) | induction of IFN-β (Ifnb1) in MAVS knockout BMDMs ([2]; WT and Mavs−/− BMDMs, LPS 4 h)
1 | COC(=O)/C=C/C(=O)OC [DMF, dimethyl fumarate] | not reduced | reduced | suppressed | strong downregulation | increased | reduced | decreased | increased | Suppression | increased |  |  |  |  |  |  |  |  |  | 
2 | CCOC(=O)[C@@]12CCCC=C1N(Cc1ccc(-c3ccccc3)cc1)C(=O)[C@H]2CC(=O)NC [FHIN1, Fumarate hydratase-IN-1] | not reduced | reduced | suppressed | strong downregulation | increased | reduced | decreased | increased | Suppression | increased | upregulation | activation | most highly upregulated pathway | Increased expression | decreased | suppression | reduced | independent of NAC-sensitive redox stress | partly NRF2-but not ATF4-dependent | did not impair

— patent publication US20250018019A1, “TREATMENT OF INTERFERON DRIVEN INFLAMMATION” (The Provost, Fellows, Foundation Scholars and the other …, priority 2023, published 2025)
